Source: US20190292189A1, “LIM KINASE INHIBITORS” (VIRONGY, LLC, priority 2016, published 2019)

Columns and labels:
Assay in all cases: Kinase profiling at 1 μM (Reaction Biology)
Assay type in all cases: biochemical
Conditions in all cases: ATP 10 μM
[1] = target: T1, ABL1 (Homo sapiens, UniProt P00519)
T1 construct: purchased Reaction Biology Corporation
Description: (§1) Profiling was carried out at Reaction Biology Corporation following a protocol described at its website: http://www.reactionbiology.com/webapps/site/. The % data were the average from two determinations. ATP concentration used: 10 μM; Staurosporine was used as the positive control.
(§2) Biochemical assays for all Limk inhibitors and kinase profiling were carried out in Reaction Biology Corporation and followed the protocols described on its website. […] Compounds were tested at 1 μM with duplicate experiments in profiling assays. […] Reactions were carried out at 10 μM ATP, 1 μM substrate cofilin, and 50 nM Limk1 (final concentrations).

[2] = target: T2, AKT2 (Homo sapiens, UniProt P31751)
T2 construct: purchased Reaction Biology Corporation
Description: as §1, §2

[3] = target: T3, ALK (Homo sapiens, UniProt Q9UM73)
T3 construct: purchased Reaction Biology Corporation
Description: as §1, §2

[4] = target: T4, AMPK(A1/B1/G1) (Homo sapiens, UniProt Q13131)
T4 construct: purchased Reaction Biology Corporation
Description: as §1, §2

[5] = target: T5, BRAF (Homo sapiens, UniProt P15056)
T5 construct: purchased Reaction Biology Corporation
Description: as §1, §2

[6] = target: T6, CAMK2b (Homo sapiens, UniProt Q13554)
T6 construct: purchased Reaction Biology Corporation
Description: as §1, §2

[7] = target: T7, CDK2/cyclin A (Homo sapiens, UniProt P24941)
T7 construct: purchased Reaction Biology Corporation
Description: as §1, §2

[8] = target: T8, CK1d (Homo sapiens, UniProt P48730)
T8 construct: purchased Reaction Biology Corporation
Description: as §1, §2

[9] = target: T9, CK2a (Homo sapiens, UniProt P68400)
T9 construct: purchased Reaction Biology Corporation
Description: as §1, §2

[10] = target: T10, DAPK1 (Homo sapiens, UniProt P53355)
T10 construct: purchased Reaction Biology Corporation
Description: as §1, §2

[11] = target: T11, EGFR (Homo sapiens, UniProt P00533)
T11 construct: purchased Reaction Biology Corporation
T11 sequence (P00533 25-1210): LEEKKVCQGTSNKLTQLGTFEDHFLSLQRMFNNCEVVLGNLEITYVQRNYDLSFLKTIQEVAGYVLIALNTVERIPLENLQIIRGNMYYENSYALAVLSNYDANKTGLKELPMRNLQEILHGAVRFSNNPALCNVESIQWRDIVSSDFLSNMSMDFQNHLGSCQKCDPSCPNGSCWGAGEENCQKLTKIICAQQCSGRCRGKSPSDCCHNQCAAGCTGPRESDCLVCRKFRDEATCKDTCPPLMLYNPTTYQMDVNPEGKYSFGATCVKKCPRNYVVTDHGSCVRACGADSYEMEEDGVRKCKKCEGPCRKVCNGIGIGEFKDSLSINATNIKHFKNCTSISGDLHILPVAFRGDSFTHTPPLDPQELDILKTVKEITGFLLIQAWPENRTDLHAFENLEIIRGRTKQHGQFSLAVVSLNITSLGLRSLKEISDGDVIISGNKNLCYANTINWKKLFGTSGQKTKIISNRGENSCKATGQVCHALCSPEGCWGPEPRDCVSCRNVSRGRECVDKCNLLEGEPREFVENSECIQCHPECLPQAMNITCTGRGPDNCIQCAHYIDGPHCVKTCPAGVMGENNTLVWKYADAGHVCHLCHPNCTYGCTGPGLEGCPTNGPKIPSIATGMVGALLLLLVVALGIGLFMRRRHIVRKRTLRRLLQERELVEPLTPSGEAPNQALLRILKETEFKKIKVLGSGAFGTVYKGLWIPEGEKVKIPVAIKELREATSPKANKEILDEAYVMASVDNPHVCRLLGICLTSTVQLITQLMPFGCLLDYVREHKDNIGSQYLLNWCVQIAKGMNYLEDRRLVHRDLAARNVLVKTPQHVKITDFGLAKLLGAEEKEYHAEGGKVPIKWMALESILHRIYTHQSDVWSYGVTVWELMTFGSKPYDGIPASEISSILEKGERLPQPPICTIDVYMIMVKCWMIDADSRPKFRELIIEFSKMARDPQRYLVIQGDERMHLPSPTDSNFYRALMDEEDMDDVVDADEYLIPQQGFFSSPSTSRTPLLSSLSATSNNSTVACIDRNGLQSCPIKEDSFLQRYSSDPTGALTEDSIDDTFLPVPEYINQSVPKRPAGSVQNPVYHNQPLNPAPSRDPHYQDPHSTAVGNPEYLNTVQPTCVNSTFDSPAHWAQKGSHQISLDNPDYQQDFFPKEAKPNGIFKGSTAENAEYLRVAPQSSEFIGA
Description: as §1, §2

[12] = target: T12, ERK2/MAPK1 (Homo sapiens, UniProt P28482)
T12 construct: purchased Reaction Biology Corporation
T12 sequence (P28482 whole entry): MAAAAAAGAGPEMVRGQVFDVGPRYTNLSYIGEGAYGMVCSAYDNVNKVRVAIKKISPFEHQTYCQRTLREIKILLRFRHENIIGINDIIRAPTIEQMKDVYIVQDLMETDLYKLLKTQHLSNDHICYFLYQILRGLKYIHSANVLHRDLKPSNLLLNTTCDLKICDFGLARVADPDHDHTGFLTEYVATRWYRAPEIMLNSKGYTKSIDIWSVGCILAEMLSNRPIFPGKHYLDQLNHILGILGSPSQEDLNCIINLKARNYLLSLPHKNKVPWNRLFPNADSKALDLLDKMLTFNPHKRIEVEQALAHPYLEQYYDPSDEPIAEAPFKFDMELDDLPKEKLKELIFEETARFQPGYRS
Description: as §1, §2

[13] = target: T13, FAK/PTK2 (Homo sapiens, UniProt Q05397)
T13 construct: purchased Reaction Biology Corporation
Description: as §1, §2

[14] = target: T14, FGFR1 (Homo sapiens, UniProt P11362)
T14 construct: purchased Reaction Biology Corporation
T14 sequence (P11362 22-822): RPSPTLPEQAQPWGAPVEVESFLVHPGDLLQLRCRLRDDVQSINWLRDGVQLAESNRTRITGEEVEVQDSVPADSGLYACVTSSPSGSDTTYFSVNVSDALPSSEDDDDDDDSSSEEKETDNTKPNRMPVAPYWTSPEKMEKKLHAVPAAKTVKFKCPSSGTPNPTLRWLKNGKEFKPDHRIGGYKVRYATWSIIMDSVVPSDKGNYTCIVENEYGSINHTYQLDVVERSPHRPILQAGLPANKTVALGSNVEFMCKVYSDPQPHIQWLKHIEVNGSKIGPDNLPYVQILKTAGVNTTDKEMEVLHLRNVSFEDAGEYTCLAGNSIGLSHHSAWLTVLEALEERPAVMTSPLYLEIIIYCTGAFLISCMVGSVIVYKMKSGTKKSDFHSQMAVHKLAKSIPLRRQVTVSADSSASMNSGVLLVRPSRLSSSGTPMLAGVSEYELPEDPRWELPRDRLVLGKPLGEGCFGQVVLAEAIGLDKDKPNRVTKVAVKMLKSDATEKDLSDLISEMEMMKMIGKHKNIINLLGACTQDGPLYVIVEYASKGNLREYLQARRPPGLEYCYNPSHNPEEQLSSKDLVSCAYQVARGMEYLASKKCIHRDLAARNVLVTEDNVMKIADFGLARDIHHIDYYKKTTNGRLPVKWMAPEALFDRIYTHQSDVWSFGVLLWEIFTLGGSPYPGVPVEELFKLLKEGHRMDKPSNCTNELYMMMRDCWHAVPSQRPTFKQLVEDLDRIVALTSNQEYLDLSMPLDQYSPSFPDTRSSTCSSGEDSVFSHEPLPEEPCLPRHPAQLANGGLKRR
Description: as §1, §2

[15] = target: T15, G5K3b (Homo sapiens, UniProt P49841)
T15 construct: purchased Reaction Biology Corporation
Description: as §1, §2

[16] = target: T16, IKKa/CHUK (Homo sapiens, UniProt O15111)
T16 construct: purchased Reaction Biology Corporation
Description: as §1, §2

[17] = target: T17, IKKb/IKBKB (Homo sapiens, UniProt O14920)
T17 construct: purchased Reaction Biology Corporation
Description: as §1, §2

[18] = target: T18, IKKe/IKBKE (Homo sapiens, UniProt Q14164)
T18 construct: purchased Reaction Biology Corporation
Description: as §1, §2

[19] = target: T19, JAK3 (Homo sapiens, UniProt P52333)
T19 construct: purchased Reaction Biology Corporation
Description: as §1, §2

[20] = target: JNK3 (Homo sapiens, UniProt P53779)
Description: as §1, §2

[21] = target: T20, MEK1 (Homo sapiens, UniProt Q02750)
T20 construct: purchased Reaction Biology Corporation
Description: as §1, §2

[22] = target: T21, MLCK/MYLK (Homo sapiens, UniProt Q15746)
T21 construct: purchased Reaction Biology Corporation
Description: as §1, §2

[23] = target: T22, MRCKa/CDC42BPA (Homo sapiens, UniProt Q5VT25)
T22 construct: purchased Reaction Biology Corporation
Description: as §1, §2

[24] = target: T23, NEK1 (Homo sapiens, UniProt Q96PY6)
T23 construct: purchased Reaction Biology Corporation
T23 sequence (Q96PY6 whole entry): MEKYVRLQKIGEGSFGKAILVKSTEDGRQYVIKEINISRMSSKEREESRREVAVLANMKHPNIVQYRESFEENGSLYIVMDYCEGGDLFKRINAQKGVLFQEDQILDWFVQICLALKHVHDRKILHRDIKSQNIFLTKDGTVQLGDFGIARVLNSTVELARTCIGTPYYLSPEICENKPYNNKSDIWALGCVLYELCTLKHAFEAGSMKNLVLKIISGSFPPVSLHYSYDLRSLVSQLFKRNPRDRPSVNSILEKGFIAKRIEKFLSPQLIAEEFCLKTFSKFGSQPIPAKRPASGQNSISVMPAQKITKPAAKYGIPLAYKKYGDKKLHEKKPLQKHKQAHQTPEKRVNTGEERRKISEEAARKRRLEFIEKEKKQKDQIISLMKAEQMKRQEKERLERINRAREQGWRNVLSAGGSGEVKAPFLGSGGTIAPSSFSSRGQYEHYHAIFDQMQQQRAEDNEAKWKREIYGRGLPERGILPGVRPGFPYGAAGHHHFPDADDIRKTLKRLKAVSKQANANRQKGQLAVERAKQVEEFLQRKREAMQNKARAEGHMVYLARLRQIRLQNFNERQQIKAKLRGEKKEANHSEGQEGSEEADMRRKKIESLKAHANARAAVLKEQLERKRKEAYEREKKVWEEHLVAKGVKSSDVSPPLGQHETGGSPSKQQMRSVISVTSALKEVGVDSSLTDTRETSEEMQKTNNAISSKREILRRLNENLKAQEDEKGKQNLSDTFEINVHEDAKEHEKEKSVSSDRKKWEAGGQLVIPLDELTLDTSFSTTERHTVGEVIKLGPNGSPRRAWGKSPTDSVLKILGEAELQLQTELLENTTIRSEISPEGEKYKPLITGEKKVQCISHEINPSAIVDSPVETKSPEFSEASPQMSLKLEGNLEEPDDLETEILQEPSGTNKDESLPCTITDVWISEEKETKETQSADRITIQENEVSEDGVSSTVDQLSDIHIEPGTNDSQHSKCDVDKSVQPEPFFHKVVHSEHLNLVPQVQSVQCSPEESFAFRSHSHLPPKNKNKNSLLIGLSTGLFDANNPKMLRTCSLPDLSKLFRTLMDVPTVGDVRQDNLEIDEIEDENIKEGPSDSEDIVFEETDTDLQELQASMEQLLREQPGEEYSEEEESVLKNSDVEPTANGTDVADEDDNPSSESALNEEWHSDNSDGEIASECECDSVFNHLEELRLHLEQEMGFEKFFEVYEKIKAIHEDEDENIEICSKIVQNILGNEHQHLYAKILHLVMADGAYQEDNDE
Description: as §1, §2

[25] = target: T24, PAK2 (Homo sapiens, UniProt Q13177)
T24 construct: purchased Reaction Biology Corporation
Description: as §1, §2

[26] = target: T25, PDGFRb (Homo sapiens, UniProt P09619)
T25 construct: purchased Reaction Biology Corporation
Description: as §1, §2

[27] = target: T26, PKA (Homo sapiens, UniProt P17612)
T26 construct: purchased Reaction Biology Corporation
Description: as §1, §2

[28] = target: T27, PKN1/PRK1 (Homo sapiens, UniProt Q16512)
T27 construct: purchased Reaction Biology Corporation
Description: as §1, §2

[29] = target: T28, PLK2 (Homo sapiens, UniProt Q9NYY3)
T28 construct: purchased Reaction Biology Corporation
Description: as §1, §2

[30] = target: T29, RET (Homo sapiens, UniProt P07949)
T29 construct: purchased Reaction Biology Corporation
Description: as §1, §2

[31] = target: T30, ROCK1 (Homo sapiens, UniProt Q13464)
T30 construct: purchased Reaction Biology Corporation
Description: as §1, §2

[32] = target: T31, STK16 (Homo sapiens, UniProt O75716)
T31 construct: purchased Reaction Biology Corporation
T31 sequence (O75716 whole entry): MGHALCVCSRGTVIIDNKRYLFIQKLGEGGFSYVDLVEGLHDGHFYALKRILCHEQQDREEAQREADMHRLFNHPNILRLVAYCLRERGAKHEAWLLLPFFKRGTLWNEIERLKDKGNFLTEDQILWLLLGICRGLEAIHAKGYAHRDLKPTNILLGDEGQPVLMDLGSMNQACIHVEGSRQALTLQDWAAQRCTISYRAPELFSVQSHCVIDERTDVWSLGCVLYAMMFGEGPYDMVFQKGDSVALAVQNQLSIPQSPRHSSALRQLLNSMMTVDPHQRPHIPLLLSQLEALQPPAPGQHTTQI
Description: as §1, §2

[33] = target: T32, STK33 (Homo sapiens, UniProt Q9BYT3)
T32 construct: purchased Reaction Biology Corporation
Description: as §1, §2

[34] = target: T33, TAOK1 (Homo sapiens, UniProt Q7L7X3)
T33 construct: purchased Reaction Biology Corporation
T33 sequence (Q7L7X3 whole entry): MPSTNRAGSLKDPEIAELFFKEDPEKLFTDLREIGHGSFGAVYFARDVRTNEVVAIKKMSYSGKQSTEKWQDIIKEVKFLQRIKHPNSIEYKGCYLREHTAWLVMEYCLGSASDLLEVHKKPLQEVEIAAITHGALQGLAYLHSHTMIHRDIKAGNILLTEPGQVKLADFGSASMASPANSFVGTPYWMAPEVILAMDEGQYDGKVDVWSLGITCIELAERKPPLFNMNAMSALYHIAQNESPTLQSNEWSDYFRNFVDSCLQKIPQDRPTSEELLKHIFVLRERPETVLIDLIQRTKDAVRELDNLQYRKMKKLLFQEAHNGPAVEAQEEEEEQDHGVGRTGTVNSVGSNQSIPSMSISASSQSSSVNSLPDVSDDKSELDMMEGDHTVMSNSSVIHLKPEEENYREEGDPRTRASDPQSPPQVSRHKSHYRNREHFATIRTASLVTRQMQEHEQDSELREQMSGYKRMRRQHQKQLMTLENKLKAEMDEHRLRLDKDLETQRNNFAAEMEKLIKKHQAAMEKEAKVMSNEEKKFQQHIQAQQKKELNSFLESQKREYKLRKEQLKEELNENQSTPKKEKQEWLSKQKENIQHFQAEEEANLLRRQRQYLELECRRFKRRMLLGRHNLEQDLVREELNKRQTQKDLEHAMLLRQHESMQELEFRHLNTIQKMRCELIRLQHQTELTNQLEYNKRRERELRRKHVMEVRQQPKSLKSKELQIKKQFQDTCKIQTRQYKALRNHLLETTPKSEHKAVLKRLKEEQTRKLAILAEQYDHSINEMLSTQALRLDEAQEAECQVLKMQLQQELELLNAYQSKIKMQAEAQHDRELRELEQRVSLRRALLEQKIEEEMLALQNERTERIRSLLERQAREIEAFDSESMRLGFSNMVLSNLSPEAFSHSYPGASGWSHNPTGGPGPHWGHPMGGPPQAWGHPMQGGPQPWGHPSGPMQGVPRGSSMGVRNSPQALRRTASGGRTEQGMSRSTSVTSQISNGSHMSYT
Description: as §1, §2

[35] = target: T34, TBK1 (Homo sapiens, UniProt Q9UHD2)
T34 construct: purchased Reaction Biology Corporation
Description: as §1, §2

[36] = target: T35, c-Kit (Homo sapiens, UniProt P10721)
T35 construct: purchased Reaction Biology Corporation
Description: as §1, §2

[37] = target: T36, c-MET (Homo sapiens, UniProt P08581)
T36 construct: purchased Reaction Biology Corporation
Description: as §1, §2

[38] = target: T37, p70S6K/RPS6KB1 (Homo sapiens, UniProt P23443)
T37 construct: purchased Reaction Biology Corporation
Description: as §1, §2

`COC(=O)c1ccc2[nH]c(C3CCN(c4ncnc5[nH]cc(Cl)c45)CC3)nc2c1` [Compound R10015, Methyl 2-(1-(5-chloro-7H-pyrrolo[2,3-d]pyrimidin-4-yl)piperidin-4-yl)-1Hbenzo[d]imidazole-5-carboxylate] gave an activity at 1 µM [1] of 89.2%, an activity at 1 µM [2] of 73.1% and an activity at 1 µM [3] of 95.5%. The activity at 1 µM [4] was 76.6%, the activity at 1 µM [5] was 91.9% and the activity at 1 µM [6] was 90.8%. For the same compound, the activity at 1 µM [7] was 82.7%, the activity at 1 µM [8] was 85% and the activity at 1 µM [9] was 94.2%. The activity at 1 µM [10] was 87.8%, the activity at 1 µM [11] was 93.2% and the activity at 1 µM [12] was 87.2%. For the same compound, the activity at 1 µM [13] was 81.5%, the activity at 1 µM [14] was 86.5% and the activity at 1 µM [15] was 67.8%. It also gave an activity at 1 µM [16] of 90.5%, an activity at 1 µM [17] of 85.1% and an activity at 1 µM [18] of 84.1%. For the same compound, the activity at 1 µM [19] was 61.1%, the activity at 1 µM [20] was 85.7% and the activity at 1 µM [21] was 75.6%. For the same compound, the activity at 1 µM [22] was 83.3%, the activity at 1 µM [23] was 96.5% and the activity at 1 µM [24] was 67.2%. The activity at 1 µM [25] was 98.2%, the activity at 1 µM [26] was 78.6% and the activity at 1 µM [27] was 24%. It also gave an activity at 1 µM [28] of 58.6%, an activity at 1 µM [29] of 103% and an activity at 1 µM [30] of 46.5%. It also gave an activity at 1 µM [31] of 42.3%, an activity at 1 µM [32] of 48.6% and an activity at 1 µM [33] of 56.5%. The activity at 1 µM [34] was 54%, the activity at 1 µM [35] was 82% and the activity at 1 µM [36] was 81.3%. It also gave an activity at 1 µM [37] of 82.1% and an activity at 1 µM [38] of 10%.
